Values quoted from earlier work in patent publication US20140073698A1 (Aventis Pharma S.A., priority 2011, published 2014).

Settings: @pH=1; simulation input

In the case of CC(C(=O)O)c1cccc(C(=O)c2ccccc2)c1 (stereo not shown) [Ketoprofen, 2-(3-benzoylphenyl)propionic acid], the “Reference Log D” value is given as 3.16.
